Source: patent US20010006961A1, “METHOD FOR IMPROVING FRUIT YIELDS FROM BANANA PLANTS” (priority 1995, published 2001)

What was measured:
[1] = system: banana plants; test: In vivo test on a banana plantation, fosetyl-Al wettable powder applied with a knapsack sprayer (Example 1)
Procedure: Example 1: In viva test of a composition comprising fosetyl-Al on a banana plantation:
(§1) The test is carried out on a plantation of banana plants which have reached a stage of regular fruit production. This plantation is furthermore treated periodically throughout the duration of the test by means of a conventional protective treatment against various fungal diseases, as well as against harmful insects and nematodes, which treatment is known to have no effect of the type of those observed below with fosetyl-Al.
The duration of the test is 2 years.
At the beginning of the first year, treatment with fosetyl-Al is carried out. For this, use is made of a wettable powder formulation of fosetyl-Al diluted in water before use, which is applied by means of a knapsack sprayer. The application dose is 6.4 kg of fosetyl-Al per hectare. This application of fosetyl-Al is repeated every 3 months throughout the duration of the test.
The average weight of a bunch of bananas harvested per plant is measured. The mean value of this weight, during the 2nd year of the test, is equal to 39.8 kg.
In comparison, a control test was carried out, in which there was no application of fosetyl-Al, the protocol otherwise being identical. This test gave 38.4 kg as the average value of the weight of a bunch of bananas harvested per plant, measured under the same conditions as above.

[2] = system: banana plants; test: In vivo test on a banana plantation on a soil of different nature, treatment carried out with an aeroplane (Example 2); settings: applied by aeroplane, control 37.4 kg
Description: Example 2: In vivo test of a composition comprising fosetyl-Al on a banana plantation:
Example 1 is repeated, a plantation situated on a soil of different nature being treated and the treatment being carried out with an aeroplane. The fosetyl-Al doses applied are shown in the table below, along with the average banana bunch weights obtained.

[3] = system: banana plants; test: In vivo test of application by injection into the growing pseudostem (Example 3); settings: 6 kg/ha (3 g per plant) injected into pseudostem 1 month before flowering; harvest 4 months later; control 28.3 kg
Procedure: Example 3: In vivo test of the application of a composition comprising fosetyl-Al by injection into the growing pseudostem:
as §1, with “preventive” for “protective”
Fosetyl-Al is injected into the pseudostem of the growing banana plants, in the proportion of 6 kg/ha (i.e. 3 g of fosetyl-Al per plant), 1 month before flowering.
The fruits are harvested 4 months later. The average weight of the bunch of bananas is 31.4 kg. The average weight of a bunch of bananas corresponding to the control test (untreated banana plants) is 28.3 kg.

CCO[PH](=O)[O-].CCO[PH](=O)[O-].CCO[PH](=O)[O-].[Al+3] [fosetyl-Al, aluminium tris(O-ethyl phosphonate)]
average weight of a bunch of bananas harvested per plant ([1]; 6.4 kg fosetyl-Al per hectare, sprayed every 3 months, mean value during 2nd year of the test, control 38.4 kg): 39.8 kg | difference in average bunch weight versus control, relative value ([1]; 6.4 kg/ha every 3 months, 39.8 kg vs control 38.4 kg): 5% | additional amount of fruit ([1]; in the case where the yield of the banana plantation is 40 tonnes/hectare of bananas): ~2 tonnes | Average weight of a bunch ([2]; fosetyl-Al dose 3.2 kg/ha): 38.9 kg | Average weight of a bunch ([2]; fosetyl-Al dose 6.4 kg/ha): 39.7 kg | average weight of the bunch of bananas [3]: 31.4 kg
